Experimental data as given in patent US12370212B2, “Intradialytic use of sodium thiosulfate” (Hope Medical Enterprises, Inc., priority 2017, dated 2025).
Like-named read-outs stand apart in the source and are kept apart here.

Columns and labels:
[1] = mixed dialysate exiting hemodialysis machine; expected 0.0608 mg/L
Description: (§1) Concentration of thiosulfate in samples was assayed by ion chromatography. The ion chromatograph was equipped with an electrochemical conductivity detector and a Dionex IonPacAS12A analytical column. The sodium thiosulfate content in the samples tested was calculated against an external sodium thiosulfate standard. USP Sodium Thiosulfate Reference Standard (Item Number 1615107) was the testing standard (United States Pharmacopeia. Rockville, Maryland).
The machine was primed in bypass mode (dialysate and ultrafiltration rates set at zero) using normal saline.

[2] = material safety data sheet; cited from earlier work
[3] = 60 mg sample, 2 mL of 0.1 N hydrochloric acid, 80° C., approximately 24 hours
Description: as §1

[4] = for Thiosulfate Concentration After the Addition of Sodium Thiosulfate (Time = 60 Min): average of two samples
Description: as §1
Dialysate bicarbonate concentrate solution was prepared by adding 1 package of Centrisol© MB-330 Series Sodium Bicarbonate Concentrate powder (650 g) to 7.7 liters of purified water.
The hemodialysis machine mixed the bicarbonate concentrate solution and acid concentrate solution with the dilution ratio of 1 part of an acid concentrate solution, 1.72 parts of a bicarbonate concentrate solution, and 42.38 parts of purified water. The machine was primed in bypass mode (dialysate and ultrafiltration rates set at zero) using normal saline. After priming, the hemodialysis machine was run in “Therapy Mode” with the following settings: blood flow rate 300 mL/minute, dialysate flow rate 600 mL/minute, ultrafiltration rate 0 mL/minute.
An aqueous solution of sodium thiosulfate was prepared by dissolving 25 mg of sodium thiosulfate in 1 liter of purified water. […] This valve was placed in the dialysate tubing approximately eight inches upstream of the dialyzer (pre-filter). Two sampling ports were placed four inches upstream (pre-dialyzer sampling port) and ten inches downstream (post-dialyzer sampling port) from the dialyzer to collect samples of dialysate for […] assay by ion chromatography.
The infusion pump infused the sodium thiosulfate solution into the tubing through the valve at a rate of 250 mL/hour (4.16 mL/minute).
Normal saline flowed into the dialyzer at a rate of 300 mL/minute from the Arterial line and exited the dialyzer through the Venous line. Samples of saline were collected from the venous side of the dialyzer.

[5] = during the first hour of hemodialysis; cited from earlier work
[6] = for Sulfate Concentration / Sulfide Concentration / Sulfite Concentration: degradation product, dialysate bicarbonate concentrate + sodium thiosulfate; for Measured Sodium Thiosulfate Concentration: dialysate bicarbonate concentrate, room temperature, expected 1.61 mg/mL
Description: as §1
Example 2 was performed to determine the stability of sodium thiosulfate in dialysate bicarbonate concentrate solution. At room temperature, 12500 mg sodium thiosulfate (50 mL of 250 mg/mL solution) was added to 7,700 mL of dialysate bicarbonate concentrate solution. The thiosulfate concentration of the dialysate bicarbonate concentrate solution was analyzed by ion chromatography 1) before addition of sodium thiosulfate; 2) 5 minutes after the addition of sodium thiosulfate; and 3) 2 hours after the addition of sodium thiosulfate.

Which “Thiosulfate Concentration by Assay” value [1] does the source give for O=S(O)(O)=S [Sodium Thiosulfate, sodium thiosulfate] here?
The value was 0.001824.

And the “behaviour on contact with acid (in words)” value [2]?
The value was “decomposes on contact with acid”.

And the “percentage of thiosulfate degradation” value [3]?
Its value is 28.6%.

And the “passage along or through dialyzer (in words)” value ([4]; added to unspiked dialysate between hemodialysis machine and dialyzer membrane)?
The value was “can either pass along or pass through a dialyzer”.

And the “Thiosulfate Concentration After the Addition of Sodium Thiosulfate (Time = 60 Min)” value ([4]; dialysate after dialyzer)?
The value was 2.20 µM.

What about the “Thiosulfate Concentration After the Addition of Sodium Thiosulfate (Time = 60 Min)” value ([4]; dialysate before dialyzer) of the same compound?
The value was 4.04 µM.

And the “Thiosulfate Concentration After the Addition of Sodium Thiosulfate (Time = 60 Min)” value ([4]; saline solution after dialyzer (venous side))?
The value was 1.62 µM.

What about the “decline of concentration of thiosulfate in the plasma” value [5] of the same compound?
Its value is “over 60%”.

What about the “Sulfate Concentration” value ([6]; after 5 minutes) of the same compound?
Its value is 4.4 µg/mL.

And the “Sulfide Concentration” value ([6]; after 5 minutes)?
Its value is <2.5 µg/mL.

And the “Sulfite Concentration” value ([6]; after 5 minutes)?
Its value is 5.9 µg/mL.

And the “Sulfate Concentration” value ([6]; after 2 hours)?
The value was 4.3 µg/mL.

What about the “Sulfide Concentration” value ([6]; after 2 hours) of the same compound?
Its value is <2.5 µg/mL.

And the “Sulfite Concentration” value ([6]; after 2 hours)?
Its value is 5.4 µg/mL.

What about the “Measured Sodium Thiosulfate Concentration” value ([6]; after 5 minutes) of the same compound?
Its value is 1.65 mg/mL.

What about the “Measured Sodium Thiosulfate Concentration” value ([6]; after 2 hours) of the same compound?
The value was 1.65 mg/mL.

And the “stability in dialysate bicarbonate concentrate solution (in words)” value ([6]; over 2 hours)?
The value was “stable”.
